The target in series [1] is T1, Peroxisome proliferator-activated receptor gamma (Homo sapiens, UniProt P37231).
T1 sequence (P37231 whole entry): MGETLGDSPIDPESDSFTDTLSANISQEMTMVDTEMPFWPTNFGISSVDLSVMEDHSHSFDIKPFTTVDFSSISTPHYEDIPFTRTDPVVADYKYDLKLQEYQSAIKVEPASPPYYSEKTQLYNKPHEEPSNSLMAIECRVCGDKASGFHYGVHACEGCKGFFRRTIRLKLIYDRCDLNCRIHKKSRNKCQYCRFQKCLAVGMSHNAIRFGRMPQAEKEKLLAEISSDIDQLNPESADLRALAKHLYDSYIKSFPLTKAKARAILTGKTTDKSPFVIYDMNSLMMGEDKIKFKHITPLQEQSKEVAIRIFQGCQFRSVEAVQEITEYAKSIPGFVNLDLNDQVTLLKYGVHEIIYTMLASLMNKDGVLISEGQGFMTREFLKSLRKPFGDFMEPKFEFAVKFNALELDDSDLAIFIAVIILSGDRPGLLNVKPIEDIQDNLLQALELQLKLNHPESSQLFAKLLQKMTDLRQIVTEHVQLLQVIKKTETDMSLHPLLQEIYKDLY
Description: Partial agonist activity at human PPARgamma-LBD expressed in CHO-K1 cells co-transfected with GAL4 assessed as luciferase activity by transactivation assay

The test system of series [2] is Mus musculus. Put plainly: Antidiabetic activity in db/db mouse assessed as weight gain at 3 to 10 mg/kg, po qd for 7 days. Type of series: functional, organism-based.
Series [3] concerns Mus musculus. Briefly: Antidiabetic activity in db/db mouse assessed as reduction of plasma glucose level at 10 mg/kg, po qd for 7 days. It is filed as functional. Also on record: scale not given: the % may be the effect or the level left.
Series [4] deals with 3T3-L1. Put plainly: Induction of adipogenesis in mouse mature 3T3L1 cells assessed as P2 mRNA expression level after 10 days […]. It is filed as cell-based. As to conditions: 3t3-l1, 240 h.
Series [5] concerns 3T3-L1. Briefly: Induction of adipogenesis in mouse blast 3T3L1 cells assessed as P2 mRNA expression level after 7 days […]. As to conditions: 3t3-l1, 168 h. It is filed as cell-based.
Series [6] relates to 3T3-L1. Put plainly: Induction of adipogenesis in mouse 3T3L1 cells assessed as increase in lipid accumulation by Oil red O staining.
For series [7], the target named is T2, Peroxisome proliferator-activated receptor gamma (Homo sapiens) (UniProt P37231).
T2 sequence (whole entry): T1 sequence (P37231 whole entry)
Briefly: Partial agonist activity at human PPARgamma-LBD expressed in CHO-K1 cells co-transfected with GAL4 assessed as luciferase activity at 10 uM by transactivation assay. It is filed as functional, cell-based.

Series [8] deals with T2, Peroxisome proliferator-activated receptor gamma (Homo sapiens). Briefly: Partial agonist activity at human PPARgamma-LBD expressed in CHO-K1 cells co-transfected with GAL4 assessed as luciferase activity at […] by transactivation assay relative to rosiglitazone. Type of series: functional, cell-based.
The subject of series [9] is Mus musculus. Put plainly: Antidiabetic activity in db/db mouse assessed as weight gain at 10 to 100 mg/kg, po qd for 7 days. Type of series: functional, organism-based.
Series [10] deals with Mus musculus. Briefly: Antidiabetic activity in db/db mouse assessed as reduction of plasma glucose level at 100 mg/kg, po qd for 7 days. It is filed as functional. Also on record: scale not given: the % may be the effect or the level left.
In series [11] the test system is Mus musculus. Briefly: Antidiabetic activity in db/db mouse assessed as reduction of plasma glucose level at 30 mg/kg, po qd for 7 days. Type of series: functional. Also on record: scale not given: the % may be the effect or the level left.
Series [12] is described as follows: Oral bioavailability in mouse at 1 mg/kg. It is filed as ADME, organism-based. As to conditions: in vivo.
Series [13] can be described thus: AUC in mouse at 1 mg/kg, iv. Type of series: ADME, organism-based. Also on record: dose 1 mg/kg, route intravenous. As to conditions: plasma.
Series [14] in a line: Half life in mouse at 1 mg/kg, iv. It is filed as ADME, organism-based. Also on record: dose 1 mg/kg, route intravenous. As to conditions: in vivo.
Series [15] can be described thus: Volume of distribution in mouse at 1 mg/kg, iv. Type of series: ADME, organism-based. Also on record: dose 1 mg/kg, route intravenous. As to conditions: in vivo.
Series [16] is described as follows: Clearance in mouse at 1 mg/kg, iv. It is filed as ADME, organism-based. Also on record: dose 1 mg/kg, route intravenous. As to conditions: in vivo.
The nature of series [17]: Solubility in water. It is filed as physicochemical.
A short description of series [18]: AUC in mouse at 1 mg/kg, po. Type of series: ADME, organism-based. Also on record: dose 1 mg/kg, route oral. As to conditions: plasma.
The nature of series [19]: Plasma concentration in mouse at 1 mg/kg, iv after 10 mins. Type of series: ADME, organism-based. Also on record: dose 1 mg/kg, route intravenous.
The target in series [20] is T3, Peroxisome proliferator-activated receptor gamma (Rattus norvegicus, UniProt O88275).
T3 sequence (O88275 whole entry): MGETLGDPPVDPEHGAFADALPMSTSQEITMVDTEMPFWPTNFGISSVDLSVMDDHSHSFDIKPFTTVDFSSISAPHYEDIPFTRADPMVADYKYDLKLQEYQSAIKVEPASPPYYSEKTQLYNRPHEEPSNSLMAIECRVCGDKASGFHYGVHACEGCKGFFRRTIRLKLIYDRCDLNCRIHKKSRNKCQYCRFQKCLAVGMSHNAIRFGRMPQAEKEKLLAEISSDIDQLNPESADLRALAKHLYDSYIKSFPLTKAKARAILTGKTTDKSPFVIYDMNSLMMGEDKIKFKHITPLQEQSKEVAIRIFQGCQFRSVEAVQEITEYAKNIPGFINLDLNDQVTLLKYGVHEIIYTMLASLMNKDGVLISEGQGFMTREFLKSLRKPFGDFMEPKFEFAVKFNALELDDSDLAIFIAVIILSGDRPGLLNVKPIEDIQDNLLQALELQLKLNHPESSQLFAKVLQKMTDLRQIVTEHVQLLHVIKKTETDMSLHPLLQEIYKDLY
Description: Antagonist activity at rat PPARgamma-LBD expressed in CHO-K1 cells co-transfected with GAL4 assessed as inhibition of rosiglitazone-induced luciferase activity by transactivation assay

Series [21] concerns the target T1, Peroxisome proliferator-activated receptor gamma. The source holds these as a separate data set.
Description: Antagonist activity at human PPARgamma-LBD expressed in CHO-K1 cells co-transfected with GAL4 assessed as inhibition of rosiglitazone-induced luciferase activity by transactivation assay
Series [22] deals with T3, Peroxisome proliferator-activated receptor gamma. This is another data set of the same source.
Description: Partial agonist activity at rat PPARgamma-LBD expressed in CHO-K1 cells co-transfected with GAL4 assessed as luciferase activity by transactivation assay
For series [23], the target named is T4, Peroxisome proliferator-activated receptor gamma (Mus musculus, UniProt P37238).
T4 sequence (P37238 whole entry): T3 sequence (O88275 whole entry) with P8S, D54E, S383N
Description: Antagonist activity at mouse PPARgamma-LBD expressed in CHO-K1 cells co-transfected with GAL4 assessed as inhibition of rosiglitazone-induced luciferase activity by transactivation assay

Series [24] concerns the target T4, Peroxisome proliferator-activated receptor gamma. This is another data set of the same source.
Description: Partial agonist activity at mouse PPARgamma-LBD expressed in CHO-K1 cells co-transfected with GAL4 assessed as luciferase activity by transactivation assay

Positions count from the first letter of the chain named. Values after ≈ are worked out from the molar mass of the structure shown. Active and inactive are the calls of the source. The calls are words filed in the database; no cut-off is given here.

In turn, `CCCCSc1nc(NCc2ccccc2)c(C(=O)O)c(SCc2ccccc2)n1` returned an EC50 in [1] of 550 nM.

On to `CN(CCOc1ccc(CC2SC(=O)NC2=O)cc1)c1ccccn1` (stereo not drawn) [ROSIGLITAZONE], for which the result in the series on Mus musculus [2] was inactive. The Activity with Mus musculus [3] was 67%; in the series on 3T3-L1 [4], “Dose-dependent effect”; with 3T3-L1 [5], “Dose-dependent effect”; in the series on 3T3-L1 [6] it was “Active”.

With `CSc1nc(NCc2cccnc2)c(C(=O)O)c(SCc2ccccc2)n1`, the midpoint of the response in [1], the EC50, lay at 740 nM.

In turn, `CSc1nc(NCc2ccccc2)c(C(=O)O)c(OCc2ccccc2)n1` returned a concentration giving a half-maximal response (EC50) in [1] of 2300 nM.

`CSc1nc(Nc2ccccc2)c(C(=O)O)c(SCc2ccccc2)n1`: in series [1], the EC50 was found to be 1600 nM.

As for `CCCCNc1nc(NCc2ccccc2)c(C(=O)O)c(SCc2ccccc2)n1`, the EC50 in [1] came out at 470 nM.

Regarding `CSc1nc(C)c(C(=O)NCc2ccccc2)c(NCc2ccccc2)n1`, the outcome in series [7] was inactive.

`CSc1nc(NCc2ccccc2)c(C(=O)O)c(-c2cccs2)n1`: in series [8], the result was inactive. In series [1], the EC50 is > 10000 nM.

In turn, `CSc1nc(Cl)c(C(=O)NCc2ccccc2)c(NCc2ccccc2)n1` displayed an EC50 in series [1] of 5000 nM.

`CCCCCCCNc1nc(NCc2ccccc2)c(C(=O)O)c(SCc2ccccc2)n1` came in with an EC50 in series [1] of 250 nM.

Regarding `CSc1nc(NCC2CCCCC2)c(C(=O)O)c(SCc2ccccc2)n1`, it took 300 nM to reach a half-maximal effect in [1] (EC50).

In turn, `CSc1nc(NCCc2ccccc2)c(C(=O)O)c(SCc2ccccc2)n1` yielded an EC50 in [1] of 670 nM.

On to `CCCCN(CCCC)c1nc(NCc2ccccc2)c(C(=O)O)c(SCc2ccccc2)n1`, for which the EC50 in [1] was > 10000 nM.

On to `CSc1nc(NCc2ccccn2)c(C(=O)O)c(SCc2ccccc2)n1`, for which the EC50 in series [1] stood at 250 nM.

In [1], `CCCCN(C)c1nc(NCc2ccccc2)c(C(=O)O)c(SCc2ccccc2)n1` yielded an EC50 of 420 nM.

Take `CSc1nc(SCc2ccccc2)c(C(=O)O)c(SCc2ccccc2)n1`: the outcome in the series with Mus musculus [9] was inactive. The Activity in the series with Mus musculus [10] is on record as 77%; in the series on Mus musculus [11] it was 56%; in the series with Mus musculus [3], 27%; with 3T3-L1 [5], “Not Active”; in the series with 3T3-L1 [6], “Active”. In series [12], this compound displayed a bioavailability of 35.8%. For the same compound, the area under the curve (AUC) in series [13] stood at 8860 ng·h/mL; in series [18] it was 3170 ng·h/mL. The half-life in series [14] was 45.6 min. In addition, the Vd in series [15] amounted to 0.12 L/kg. The compound also had a clearance in series [16] of 1.88 mL/min/kg. Also, in series [17], the concentration in solution (solubility) came to 43.7 µg/mL (≈ 105 µM). In series [19], the concentration at 10 min is 6890 ng/mL. Also, the results for the IC50 in [20], in series [21] and in series [23] were 539 nM, 1790 nM and 1770 nM, respectively. The EC50 in [22] was 158 nM; in series [1], 140 nM; in series [24], 158 nM.

As to `CSc1nc(NCc2ccccc2)c(C(=O)O)c(SCc2ccccc2)n1`, the solubility in series [17] was < 1 µg/mL. In addition, in [1], the midpoint of the response, the EC50, lay at 180 nM.

On to `CCCCCCCCSc1nc(NCc2ccccc2)c(C(=O)O)c(SCc2ccccc2)n1`, for which a half-maximal effect in [1] (EC50) was put at 950 nM.

Turning to `O=C(O)c1c(NCc2ccccc2)ncnc1SCc1ccccc1`, in series [1], the EC50 was > 10000 nM.

`CSc1nc(NC2CC2)c(C(=O)O)c(SCc2ccccc2)n1`: the EC50 in series [1] was determined as 1800 nM.

Regarding `CCCNc1nc(SC)nc(SCc2ccccc2)c1C(=O)O`, in series [1], the EC50 was > 10000 nM.

Take `CNc1nc(SC)nc(SCc2ccccc2)c1C(=O)O`: the EC50 in series [1] is > 10000 nM.

`CSc1nc(NCc2ccncc2)c(C(=O)O)c(SCc2ccccc2)n1`: a half-maximal response in series [1] (EC50) required 2700 nM.

Source of the values: ChEMBL document CHEMBL1177724, “Design, synthesis, and structure-activity relationship studies of novel 2,4,6-trisubstituted-5-pyrimidinecarboxylic acids as peroxisome proliferator-activated receptor gamma (PPARgamma) partial agonists with comparable antidiabetic efficacy to rosiglitazone” (J Med Chem, 2010).
